The results in this text go back to publication PMC6923382, “Small molecules that inhibit TNF signalling by stabilising an asymmetric form of the trimer” (Nature Communications, 2019).

For data set [1], the target named is T1, TNF (Homo sapiens, UniProt P01375). Kind of data set: Thermal denaturation assay of thermal stability. On the set-up: stabilise an asymmetrical form of the soluble TNF trimer. Format: binding. How it is done: (§1) A fluorescence probed thermal denaturation assay was performed to assess the effect of the compounds on the thermal stability of TNF (or other members of the TNF family) as a measure of compound binding. The reaction mixture contained 5 µL of 30× SYPRO® Orange dye (Invitrogen) and 5 µL of TNF (at 1 mg/mL), 37.5 μL PBS, pH 7.4 and 2.5 μL of compound (at 2 mM in DMSO). The mixture (10 µL) was dispensed in quadruplicate into a 384 PCR optical well plate and was run on a 7900HT Fast Real-Time PCR System ([…]). The PCR System heating device was set at 20 °C to 99 °C with a ramp rate of 1.1 °C min^−1; fluorescence changes in the wells were monitored by a CCD device. The fluorescence intensity increase was plotted as a function of temperature and the Tm calculated as the midpoint of this denaturation curve (determined as the point of inflection).
T1 sequence (P01375 77-233 limits assumed): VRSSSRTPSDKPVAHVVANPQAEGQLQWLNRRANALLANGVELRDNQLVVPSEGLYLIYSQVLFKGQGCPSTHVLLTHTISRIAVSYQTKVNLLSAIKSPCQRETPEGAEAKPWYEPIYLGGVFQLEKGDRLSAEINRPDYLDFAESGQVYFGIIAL

Data set [2] has as its target T1, TNF. Description: TNF reporter gene assay HEK-293, human TNF. Format: cell-based. Details: stabilise an asymmetrical form of the soluble TNF trimer. The procedure: Stimulation of HEK-293 cells by TNF leads to activation of the NF-κB pathway. The HEK-Blue^TM CD40L SEAP (secreted embryonic alkaline phosphatase) reporter cell line used to determine TNF activity (InvivoGen, #hkb-CD40, cells were described as mycoplasma free when purchased and were tested using Mycoalert [Lonza] after each batch of assay vial preparation). […] Cells were added to the compound/stimulus mixture and further incubated for 18 h. SEAP was measured using the colorimetric substrate HEK-Blue Detect^TM or QUANTI-Blue^TM from InvivoGen. […] The IC50 was determined as the point of inflexion between the fitted minimum and maximum of the compound dose response curve, calculated using 4PL fitted curve. Mean IC50s are reported as a mean of at least two experiments.

For another data set, the system named is human TNF superfamily. Kind of data set: Thermal denaturation, human TNF superfamily. In kind it is binding. As to conditions: 100 µM compound, 0.1 mg/mL sample; single experiment. How it is done:
as §1
(§2) Compound based thermal stability increase (oC)
(§3) 100 µM compound 0.1 mg/mL sample […]
(§4) compared to human TNF. Human proteins were provided through a collaboration with Beryllium. Data from a single experiment. […]
(§5) compared to mouse TNF. Mouse proteins were purchased from R&D Systems. (Note: No Tm for Lymphotoxin (LTa) was detected in this assay making a change in Tm unmeasurable).
(§6) Data from a single experiment.
(§7) (also on this page, place not known: 16.0Thermal 10Thermal stability difference (oC) stability increase (oC))

The nature of data set [3]: Dynamic light scattering (colloidal aggregation). Format: physicochemical. As to conditions: 10 μM; no detergent; 25°C; n=5. The procedure: Dynamic light scattering (DLS) experiments have been performed with compounds […]
baseline control and positive control (miconazole at 100 μM) were included. The radius data […]
compound in the absence of detergent.
DLS data (Malvern Nano ZS). Each sample (150 μl) was measured 5 times in a low volume disposable sizing cuvette at 25°C using 173º non-invasive backscatter (NIBS). […]

For a further data set, the system named is Mouse TNF superfamily. Kind of data set: Thermal denaturation, mouse TNF superfamily. In kind it is binding. To be noted: 100 µM compound, 0.1 mg/mL sample; single experiment. The procedure:
as §1, §2, §3, §4, §5, §6, §7

In data set [4] the target is T1, TNF. Description: TNF L929 cytotoxicity assay, human TNF. In kind it is cell-based. On the set-up: stabilise an asymmetrical form of the soluble TNF trimer. How it is done: TNF (human or mouse) kills L929 cells which have been compromised by incubation with a sub-lethal concentration of actinomycin D, and this effect is inhibited with TNF biologics. Compounds were titrated in DMSO, and then pre-incubated with human or mouse TNF for 1 h. […] L929 cytotoxicity was measured by the addition of CellTitreGlo (Promega). Luminescence was measured after an incubation of at least 20 min in the dark. Percentage inhibition was calculated between unstimulated wells (maximum signal), and wells with TNF, DMSO and actinomycin D (minimum signal). The IC50 was calculated as the point of inflexion for a 4PL fitted curve. Mean IC50s are reported as a mean of at least two experiments.

The subject of data set [5] is NF-κB stimulated by the TNFR1 agonist antibody. Description: HEK-293 reporter gene assay, anti-TNFR1 agonist antibody stimulus. As to conditions: agonist antibody 0.3 μg/mL; compound up to 10 µM. Format: cell-based, human. The procedure: Stimulation of HEK-293 cells by TNF leads to activation of the NF-κB pathway. The HEK-Blue^TM CD40L SEAP (secreted embryonic alkaline phosphatase) reporter cell line used to determine TNF activity (InvivoGen, #hkb-CD40, cells were described as mycoplasma free when purchased and were tested using Mycoalert [Lonza] after each batch of assay vial preparation). Compounds were titrated in DMSO and pre-incubated with TNF at a concentration giving half maximal response (10 pM for human or 20 pM for mouse) or the anti-human TNFR1 agonist antibody (R&D Systems. #AF 225) for 1 h. Cells were added to the compound/stimulus mixture and further incubated for 18 h. SEAP was measured using the colorimetric substrate HEK-Blue Detect^TM or QUANTI-Blue^TM from InvivoGen. Percentage inhibitions for compound dilutions were calculated between a DMSO control and maximum inhibition (by excess anti-TNF biologic, or NF-κB inhibitor–TPCA-1 [Tocris #2559, R&D Systems]). The IC50 was determined as the point of inflexion between the fitted minimum and maximum of the compound dose response curve, calculated using 4PL fitted curve. Mean IC50s are reported as a mean of at least two experiments. Dose response curves for TNF and the anti-human TNFR1 agonist antibody are shown in Supplementary Fig. 9.
For orientation: Reporter assays use an easily measured gene product as a stand-in for the process of interest.

“And” between values parts separate entries of the source, which are not always exact repeats. Identical values can stand only once. “Also recorded” adds a separate entry of the source.

By IC50 is commonly meant the concentration at which inhibition is half-maximal. High values mean weaker potency, low ones greater potency. Consider `Cc1ccc(C)c(Cn2c(C(O)c3ccncc3)nc3ccc(-c4cnn(C)c4)cc32)c1` (centres unmarked) [UCB-9260], for which, at TNF [1] (DMSO 5%), the “Tm difference (hTNF + compound) - (hTNF+DMSO)” value stood at 17.3 °C. For the same compound, the “Tm (mean ± SD)” value on TNF [1] (hTNF + DMSO (5%) + compound, n=4 replicates) came out at 78.0 ± 0.7 °C. At TNF [1] (inhouse hTNF 5% DMSO + compound, 4 wells), the Tm1 Average was determined as 78 °C. Moreover, the “Unreviewed - Tm1” value at TNF [1] (single wells, inhouse hTNF 5% DMSO + compound, listed as 1449260-000, in °C) is 77.1 and 77.9 and 78.1 and 78.7. On TNF [2], this compound returned an IC50 of 202 nM. Further, at TNF [2] (10 pM wild-type TNF, HEK NFκΒ reporter), the “inhibition of wild-type TNF” value is “inhibited”. The “change in Tm of other human TNF superfamily members” value with human TNF superfamily is “negligible effect; also recorded: No other protein tested showed a significant change in Tm”. Besides, the “colloidal aggregation (DLS radius)” value in data set [3] is on record as “no evidence of colloidal aggregation”. Moreover, the “change in Tm of other mouse TNF superfamily members” value in the data set with Mouse TNF superfamily is on record as “negligible effect”. For the same compound, the Luminescence units at TNF [4] (compound -logM 4.6) was found to be 12619 Luminescence units; on TNF [4] (compound -logM 5.08) it was 13471 Luminescence units; on TNF [4] (compound -logM 5.56) it was 13691 Luminescence units; on TNF [4] (compound -logM 6.03), 12384 Luminescence units; on TNF [4] (compound -logM 6.51), 8197 Luminescence units; on TNF [4] (compound -logM 6.99), 7043 Luminescence units. Also, the Luminescence units at TNF [4] (compound -logM 7.46) stood at 6740 Luminescence units; at TNF [4] (compound -logM 7.94), 4803 Luminescence units; on TNF [4] (compound -logM 8.42), 3698 Luminescence units; on TNF [4] (compound -logM 8.9), 3202 Luminescence units. For the same compound, the “inhibition of NF-κB stimulated by TNFR1 agonist antibody” value in data set [5] was “no inhibition”.
